In data set [1] the test system is T29Kt1 cells.
For data set [2], the system named is H460 cells. Particulars: up to 100 μM.
The subject of data set [3] is T29 cells.
The next data set has as its system CT116P53. The data set can be described thus: Cell viability, CT116P53 colon cancer cells. Particulars: Homo sapiens, read-out: IC50 (−LogM) (converted). It counts as cell-based, human.
In another data set the test system is H1395. The data set can be described thus: Cell viability, H1395 lung cancer cells. It counts as cell-based, human. Particulars: Homo sapiens, NCI-H1395, read-out: IC50 (−LogM) (converted).
A further data set relates to Heb46. The data set can be described thus: Cell viability, Heb46 kidney cells. The class given is cell-based.
In another data set the test system is H2122. The data set can be described thus: Cell viability, H2122 lung cancer cells. The class given is cell-based, human. Particulars: Homo sapiens, NCI-H2122, read-out: IC50 (−LogM) (converted).
In a further data set the test system is Heb44. The data set can be described thus: Cell viability, Heb44 kidney cells. The class given is cell-based.
The subject of data set [4] is T29Kt1 cells. The data set can be described thus: cells. Particulars: Homo sapiens, T29Kt1, read-out: IC50 in T29k cells, Table 1.
A further data set deals with H1933. The data set can be described thus: Cell viability, H1933 lung cancer cells. It counts as cell-based, human. Particulars: Homo sapiens, read-out: IC50 (−LogM) (converted).
A further data set has as its system A549CK8. The data set can be described thus: Cell viability, A549CK8 lung cancer cells. It counts as cell-based, human. Particulars: Homo sapiens, read-out: IC50 (−LogM) (converted).
The test system of the next data set is Hct116. The data set can be described thus: Cell viability, Hct116 colon cancer cells. It counts as cell-based, human. Particulars: Homo sapiens, HCT-116, read-out: IC50 (−LogM), Hct116, Colon (converted).
The next data set concerns Ovcar3. The data set can be described thus: Cell viability, Ovcar3 ovary cancer cells. The class given is cell-based. Particulars: Homo sapiens, OVCAR-3.
For a further data set, the system named is SKOV3. The data set can be described thus: Cell viability, SKOV3 ovary cancer cells. It counts as cell-based. Particulars: Homo sapiens, SK-OV-3.
The subject of another data set is Ovca429. The data set can be described thus: Cell viability, Ovca429 ovary cancer cells. It counts as cell-based.
For data set [5], the system named is H460 cells. The data set can be described thus: cells. Particulars: Homo sapiens.
In a further data set the test system is Capanc-1. The data set can be described thus: Cell viability, Capanc-1 pancreatic cancer cells. It counts as cell-based, human. Particulars: Homo sapiens, Pancreatic cancer cell, read-out: IC50 (−LogM), capanc1, Pancrease (converted).
The test system of a further data set is H322 cells. The data set can be described thus: Cell viability, H322 lung cancer cells. It counts as cell-based, human. Particulars: Homo sapiens, NCI-H322, read-out: IC50 (−LogM) (converted).
The test system of the next data set is miapac. The data set can be described thus: Cell viability, miapac pancreatic cancer cells. Particulars: Homo sapiens, Pancreatic cancer cell, read-out: IC50 (−LogM) (converted). The class given is cell-based, human.
The next data set relates to A549 cells. The data set can be described thus: Cell viability, A549 lung cancer cells. The class given is cell-based, human. Particulars: Homo sapiens, A549, read-out: IC50 (−LogM), A549, Lung (converted).
In a further data set the test system is H2087. The data set can be described thus: Cell viability, H2087 lung cancer cells. It counts as cell-based, human. Particulars: Homo sapiens, NCI-H2087, read-out: IC50 (−LogM) (converted).
Another data set deals with DLD1. The data set can be described thus: Cell viability, DLD1 colon cancer cells. It counts as cell-based, human. Particulars: Homo sapiens, DLD-1, read-out: IC50 (−LogM) (converted).
The next data set deals with H226B cells. The data set can be described thus: Cell viability, H226B lung cancer cells. The class given is cell-based, human. Particulars: Homo sapiens.
Data set [6] has as its system T29 cells. The data set can be described thus: cells. Particulars: Homo sapiens, T29, read-out: IC50 in T29 cells.
Another data set relates to H23. The data set can be described thus: Cell viability, H23 lung cancer cells. Particulars: Homo sapiens, NCI-H23, read-out: IC50 (−LogM) (converted). The class given is cell-based, human.
The subject of a further data set is AsPC-1. The data set can be described thus: Cell viability, AsPC-1 pancreatic cancer cells. Particulars: Homo sapiens, ASPC1, read-out: IC50 (−LogM), ASPC1, Pancrease (converted). It counts as cell-based, human.
For the next data set, the system named is H1299 cells. The data set can be described thus: Cell viability, H1299 lung cancer cells. Particulars: Homo sapiens, NCI-H1299, read-out: IC50 (−LogM), h1299, Lung (converted). The class given is cell-based, human.
The next data set relates to H2009. The data set can be described thus: Cell viability, H2009 lung cancer cells. Particulars: Homo sapiens, NCI-H2009, read-out: IC50 (−LogM) (converted). It counts as cell-based, human.
The test system of another data set is Ovcar443. The data set can be described thus: Cell viability, Ovcar443 ovary cancer cells. The class given is cell-based.
A further data set deals with Hey. The data set can be described thus: Cell viability, Hey ovary cancer cells. The class given is cell-based.
A further data set concerns HKE3. The data set can be described thus: Cell viability, HKE3 colon cancer cells. It counts as cell-based, human. Particulars: Homo sapiens.
For another data set, the system named is PKCiota. The data set can be described thus: Immunohistochemical staining, subcellular localization of PKCiota. The class given is cell-based, human. Particulars: 12 h; comparators at doses giving similar cell killing. The method, then: Effects on subcellular localization of PKCiota. […] To further investigate molecular mechanisms of Oncrasin action the inventors studied the subcellular localization of several molecules involved in Ras-signaling pathway because the functions of Ras and other proteins are directly related to their subcellular localizations. For this purpose, T29Kt1 or H460 cells were seeded on cover glass slides and treated with DMSO or Oncrasin-1 for 12 h. Cells were then fixed with paraformaldehyde, permeabilized with Triton X-100 and stained with various antibodies for immunohistochemical examination. […] Nevertheless, substantial subcellular localization change was detected for PKCiota after Oncrasin-1 treatment (FIG. 6). In both H460 and T29Kt1 cells, both PKCiota and PKCzeta were diffusely distributed in cells with high concentration on cell membrane in nucleus, consisting with previous reports that aPKC contains both nuclear localization signal (NLS) and nuclear export signal (NES), and can shuttle between cytoplasm and nucleus, which was regulated by intramolecular conformational changes, phosphorylation or by treatment with growth factors (Perander et al., 2001; White et al., 2002; Neri et al., 1999). […] Such aggregation of PKCiota was not observed in Oncrasin-resistant T29 and H1299 cells. The inventors then tested whether PKCiota aggregation in the nucleus can be induced by other chemotherapeutic agents such as 5-fluorouracil (5-FU) and paclitaxol.

A further data set deals with wild-type MEF. Particulars: Winter-Vann et al., 2005; cited from earlier work.
The mark [7] stands for this setting: at any of the doses tested (dose response).
Where [8] appears, read: up to 100 μM, the highest concentration tested.

These results are taken from US8883841B2, “Oncogenic ras-specific cytotoxic compound and methods of use thereof” (The Board of Regents of the University of Texas System, priority 2005, dated 2014).

Read-outs that look alike come from different tables or passages of the source.

The IC50 is the concentration that inhibits the measured activity by half.

Regarding `OCc1c[nH]c2ccccc12` [indole-3-carbinol, reference compound], in the data set on T29Kt1 cells [1] (same dose range as tested for the leader), the “toxicity to T29K cells” value is listed as “did not induce any cytotoxicity”. For the same compound, in the data set with T29Kt1 cells [1] (up to 100 μM), the “cytotoxicity in T29Kt1 cells” value is listed as “did not have any cytotoxic effects”. Also, the “cytotoxicity in H460 cells” value in the data set with H460 cells [2] is on record as “did not have any cytotoxic effects”. Also, in the data set with T29 cells [3] (setting [7]), the “toxicity to T29 cells” value was “did not induce any cytotoxicity”. Besides, the “cytotoxicity in T29 cells” value in the data set on T29 cells [3] (setting [8]) was “did not have any cytotoxic effects”. Besides, the “toxicity to T29Ht1 (T29H) cells” value with T29Ht1 cells (setting [7]) was “did not induce any cytotoxicity”. Moreover, the “cytotoxicity in T29Ht1 cells” value in the data set on T29Ht1 cells (setting [8]) is reported as “did not have any cytotoxic effects”.
Take `O=Cc1cn(Cc2cccc([N+](=O)[O-])c2)c2ccccc12` [Oncrasin K68, 1-(3-nitrobenzyl)-1H-indole-3-carbaldehyde]: the IC50 was less than 31.6 µM with CT116P53; less than 31.6 µM in the data set with H1395; 0.2 µM in the data set with Heb46; 1 µM with H2122; 0.01 µM with Heb44; 0.501 µM with T29Kt1 cells [4]. Also, the IC50 is 25.1 µM in the data set on H1933; 3.16 µM with A549CK8; 0.158 µM with Hct116; 0.158 µM in the data set with Ovcar3; 1 µM in the data set on SKOV3; 31.6 µM in the data set on Ovca429. For the same compound, the IC50 was 0.0398 µM with H460 cells [5] (NCI-H460, read-out: IC50 (−LogM), H460, Lung (converted)); 0.0398 µM in the data set with H460 cells [5] (NCI-H460, read-out: IC50 in H460 cells, Table 1); 31.6 µM with Capanc-1; 31.6 µM with H322 cells; less than 31.6 µM in the data set on miapac; 5.01 µM in the data set on A549 cells. Also, the IC50 with H2087 was 31.6 µM; in the data set with DLD1, less than 31.6 µM; with H226B cells (read-out: IC50 (−LogM), H226B, Lung, first H226B line (converted)) it was 0.00251 µM; with H226B cells (read-out: IC50 (−LogM), H226B, Lung, second H226B line (converted)), 0.0631 µM; in the data set with T29 cells [6] it was 31.6 µM; in the data set with H23, 31.6 µM. The IC50 was 2 µM in the data set with AsPC-1; 10 µM with H1299 cells; 31.6 µM in the data set on H2009; 10 µM with Ovcar443; less than 31.6 µM in the data set with Hey; 0.1 µM in the data set on HKE3 (read-out: IC50 (−LogM), HKE3, Colon, first HKE3 line (converted)). For the same compound, in the data set on HKE3 (read-out: IC50 (−LogM), HKE3, Colon, second HKE3 line (converted)), the IC50 was 0.398 µM.
Regarding `O=c1cc(N2CCOCC2)oc2c(-c3ccccc3)cccc12` [LY294003, reference compound], in the data set with PKCiota, the “PKCiota aggregation in the nucleus, T29Kt1 cells” value (“PKCiota aggregation” for short) is “did not induce PKCiota aggregation”.
As for `CCCCCCCCn1cc(CC(N)=O)c2cc(-c3cccc(C)c3)ccc21` [Cysmethynil, 2-[5-(3-methylphenyl)-1-octyl-1H-indol-3-yl]acetamide], in the data set with wild-type MEF, the “growth inhibition in wild-type MEF” value is given as “induce Icmt-dependent growth inhibition”.
Consider `CC(=O)O[C@H]1C(=O)[C@@]2(C)[C@H]([C@H](OC(=O)c3ccccc3)[C@]3(O)C[C@H](OC(=O)[C@H](O)[C@@H](NC(=O)c4ccccc4)c4ccccc4)C(C)=C1C3(C)C)[C@]1(OC(C)=O)CO[C@@H]1C[C@@H]2O` [taxol, paclitaxol, reference compound], for which the “PKCiota aggregation” value in the data set on PKCiota is listed as “did not induce PKCiota aggregation”.
As for `O=c1[nH]cc(F)c(=O)[nH]1` [Oncrasin 5-FLY, 5-fluorouracil, reference compound], the “PKCiota aggregation” value with PKCiota is “did not induce PKCiota aggregation”.
